{
  "source": "patent US20090062370A1",
  "about": "“Method for increasing the speed of recovery and/or the speed of wound healing of injured animals” (priority 2005, published 2009)",
  "key": {"wounded animals": {"tested_on": "wounded animals", "assay": "Feeding of wounded animals with supplemented feed (general description, daily intake titration)", "format": "in vivo", "from_the_text": "Phytohormones and beta-glucans appeared to work in a wide range of concentrations for improving the speed of wound healing in animals. The optimal concentrations may vary between different species, however, the skilled person will know how to obtain an optimal concentration for a given species, for instance by titration of the desired compound into the animal feed and testing when this would have the optimal effect. The following may serve as guidance in this process.\nA skilled person will appreciate that the amount of free IAA in the ready to use feed has to be adjusted in order to supply the animal with an effective amount of free IAA. In order to adjust the free IAA concentration in the feed so that a certain daily intake of free IAA is achieved, an estimate has to be made of the feed intake of an animal or animal group. A skilled person is aware of the feed intake of a (particular kind or group of) animal(s), typically, the feed intake per day is between 0.5 and 10% of the body weight of the animal, with occasional exceptions as high as 20%. Elderly animals tend to eat less and are considered to have a feed intake per day between 0.1 and 5%, typically of 1% of their body mass."}, "fibroblasts": {"tested_on": "fibroblasts", "conditions": "cited from earlier work"}, "[1]": {"tested_on": "koi fish suffering from wounds as a result of parasites", "assay": "Wound healing of koi fish in ponds fed fish feed according to the invention", "format": "in vivo", "conditions": "scale 1 (very slow recovery) to 5 (very fast recovery)", "from_the_text": "Four ponds of 40 cubic meters each, each containing 50 koi fish with an approximate total body weight of 50 kg were used to establish the effect of the fish feed according to the invention on wound healing. One pond (pond 1) served as a control were the fish were fed with control feed, the fish in the other ponds received a feed according to the invention as prepared in examples 6 to 8 above.\nThe fish in control pond were fed with 10 gram Cyprico White 3 mm floater feed per day, whereas the fish in the other ponds were fed with 10 gram of the feed as described in Example 2, 3 and 4 (Table 2). About 10% of all fish suffered from wounds as a result of parasites.\nThe veterinarian filled in a questionnaire on the recovery process of the fish, Table 3. Criterion was the speed of disappearance of the wounds. This criterion was scored on a scale ranging from 1 to 5 wherein 1 was very slow recovery and 5 very fast recovery. This criterion was scored 1, 2, 4, 7 and 21 days of feeding."}, "humans": {"tested_on": "humans", "conditions": "single doses of 0.1 g/kg body weight; cited from earlier work"}, "surgical wound": {"tested_on": "surgical wound", "conditions": "oral supplementation of 50 mg of zinc three times per day, as zinc sulfate; cited from earlier work"}},
  "data": [
    {"molecule": "1.3 and 1.6 beta glucans", "values": [
      {"measurement": "optimal daily intake (optimal results / optimum between cost and benefit)", "setting": "wounded animals; in feed", "result": "around 5 mg/kglw/day"}
    ]},
    {"molecule": "O=C(O)Cc1c[nH]c2ccccc12", "note": "[free IAA, indole-3-acetic acid]", "values": [
      {"measurement": "effect on the migration of fibroblasts in vitro", "setting": "fibroblasts", "result": "had an effect"},
      {"measurement": "Wound healing score", "setting": "[1]; 1 day of feeding", "result": 1},
      {"measurement": "Wound healing score", "setting": "[1]; 2 days of feeding", "result": 1},
      {"measurement": "Wound healing score", "setting": "[1]; 4 days of feeding", "result": 2},
      {"measurement": "Wound healing score", "setting": "[1]; 7 days of feeding", "result": 3},
      {"measurement": "Wound healing score", "setting": "[1]; 21 days of feeding", "result": 4},
      {"measurement": "toxicity of single doses", "setting": "humans", "result": "non-toxic"},
      {"measurement": "effect on recovery of wounded animals", "setting": "wounded animals; feed with 0.4 mg/kglw/day", "result": "very effective"}
    ]},
    {"molecule": "C=C1C[C@]23C[C@@]1(O)CC[C@H]2[C@@]12C=C[C@H](O)[C@@](C)(C(=O)O1)[C@H]2[C@@H]3C(=O)O", "note": "[gibberellin, gibberellic acid]", "values": [
      {"measurement": "effect on the migration of fibroblasts in vitro", "setting": "fibroblasts", "result": "not"}
    ]},
    {"molecule": "O=S(=O)([O-])[O-].[Zn+2]", "note": "[zinc, zinc sulfate]", "values": [
      {"measurement": "reduction of healing time of a surgical wound", "setting": "surgical wound", "result": 43, "unit": "%"}
    ]}
  ]
}
